Source: US8389523B2, “Substituted quinoxaline and an agrochemical composition thereof” (Kumiai Chemical Industry Co., Ltd., priority 2007, dated 2013)

What was measured:
Type in all cases: in vivo
Set-up in all cases: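 grade 0 to 5 of growth suppression where 5 is 90% or more and 0 below 10%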
[1] = system: Echinochloa crus-galli (L.) P. Beauv. var. crus-galli; test: Herbicidal effects in upland field foliar treatment (Test Example 3); conditions: criteria of Table 138; for herbicidal effects on Echinochloa crus-galli (L.) P. Beauv. var. crus-galli: 1000 g of the active ingredient per hectare, 14th day after the treatment, wettable powder; for herbicidal effect (index) on Echinochloa crus-galli (L.) P. Beauv. var. crus-galli: 1000 g active ingredient per hectare, 14th day after treatment
In short: (§1)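 Greenhouse pot test, upland soil; 2-wk-old plants sprayed from above with water-diluted wettable powder (1000 L/ha spray volume, 1000 g a.i./ha). Regrown in greenhouse; visual herbicidal score on day 14 post-treatment.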

[2] = system: Abutilon theophrasti medicus; test: as above; conditions: criteria of Table 138; for herbicidal effects on Abutilon theophrasti medicus: 1000 g of the active ingredient per hectare, 14th day after the treatment, wettable powder; for herbicidal effect (index) on Abutilon theophrasti medicus: 1000 g active ingredient per hectare, 14th day after treatment
In short: as §1

Amaranthus viridis L. [3] = test: as above; conditions: criteria of Table 138; for herbicidal effects on Amaranthus viridis L.: 1000 g of the active ingredient per hectare, 14th day after the treatment, wettable powder; for herbicidal effect (index) on Amaranthus viridis L.: 1000 g active ingredient per hectare, 14th day after treatment
In short: as §1

[4] = system: Abutilon theophrasti medicus; test: Herbicidal effects in upland field soil treatment (Test Example 2); conditions: 1000 g active ingredient per hectare, 21st day after treatment, criteria of Table 138
In short: (§2)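 Seeds sown in upland soil and covered; surface sprayed with water-diluted wettable powder, 1000 g a.i./ha, spray volume 1000 L/ha. Greenhouse growth, visual herbicidal rating at day 21.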

Amaranthus viridis L. [5] = test: as above; conditions: 1000 g active ingredient per hectare, 21st day after treatment, criteria of Table 138
In short: as §2

[6] = system: Monochoria vaginalis (Burm. f.) Presl var. plantaginea (Roxb.) Solms-Laub.; test: Herbicidal effects in paddy field soil treatment (Test Example 1); conditions: paddy field soil treatment; 1000 g of the active ingredient per hectare; wettable powder added dropwise on water surface; 21st day after treatment
In short: (§3)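 Paddy soil pre-emergence test: seeds sown, flooded 3 cm; next day wettable powder in water applied dropwise to water surface, 1000 g a.i./ha; greenhouse; effect rated visually on scale at 21 d post-treatment.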

[7] = system: Echinochloa oryzicola Vasing; test: as above; conditions: paddy field soil treatment; 1000 g of the active ingredient per hectare; wettable powder added dropwise on water surface; 21st day after treatment
In short: as §3

[8] = system: Scirpus juncoides Roxb. var. ohwianus. T. Koyama; test: as above; conditions: paddy field soil treatment; 1000 g of the active ingredient per hectare; wettable powder added dropwise on water surface; 21st day after treatment
In short: as §3

SMILES | herbicidal effects on Echinochloa crus-galli (L.) P. Beauv. var. crus-galli [1] | herbicidal effects on Abutilon theophrasti medicus [2] | herbicidal effects on Amaranthus viridis L. (Amaranthus viridis L. [3]) | herbicidal effect (index) on Abutilon theophrasti medicus [4] | herbicidal effect (index) on Amaranthus viridis L. (Amaranthus viridis L. [5]) | Herbicidal effects index, Monochoria vaginalis (Burm. f.) Presl var. plantaginea (Roxb.) Solms-Laub. [6] | Herbicidal effects index, Echinochloa oryzicola Vasing [7] | Herbicidal effects index, Scirpus juncoides Roxb. var. ohwianus. T. Koyama [8] | herbicidal effect (index) on Echinochloa crus-galli (L.) P. Beauv. var. crus-galli [1] | herbicidal effect (index) on Abutilon theophrasti medicus [2] | herbicidal effect (index) on Amaranthus viridis L. (Amaranthus viridis L. [3])
O=C1CCCC(O)=C1C(=O)c1nc2ccc(F)cc2n(-c2ccccc2)c1=O [II-241] | 5 | 5 | 5 | 5 | 5 | 5 | 5 | 5 | – | – | –
Cc1ccccc1-n1c(=O)c(C(=O)C2=C(O)CCCC2=O)nc2cccnc21 [IV-19] | 5 | 5 | 5 | 5 | 5 | 5 | 5 | 5 | – | – | –
CC(C)(C)OC(=O)Cn1c(=O)c(C(=O)C2=C(O)CCCC2=O)nc2ccccc21 [Compound I-99] | – | – | – | 5 | 5 | 5 | 5 | 5 | 5 | 5 | 5
Cn1c(=O)c(C(=O)C2=C(O)CCCC2=O)nc2cc(F)ccc21 [I-220] | – | – | – | 5 | 5 | 5 | 5 | 5 | 5 | 5 | 5
COc1cc(-n2c(=O)c(C(=O)C3=C(O)CCCC3=O)nc3ccccc32)ccc1Cl [II-167] | 5 | 5 | 5 | 5 | 5 | 5 | 5 | 5 | – | – | –
CCCn1c(=O)c(C(=O)C2=C(O)CCCC2=O)nc2ccccc21 [Compound I-12] | – | – | – | 5 | 5 | 5 | 5 | 5 | 4 | 5 | 5
O=C1CCCC(O)=C1C(=O)c1nc2ccccc2n(-c2ccc3c(c2)OCO3)c1=O [I-202, 1-(benzo[d][1,3]dioxol-5-yl)-3-(2-hydroxy-6-oxo-1-cyclohexenecarbonyl)-quinoxalin-2(1H)-one] | – | – | – | 4 | 5 | 5 | 5 | 5 | 4 | 5 | 5
Cc1cc(-n2c(=O)c(C(=O)C3=C(O)C(C)(C)C(=O)C(C)(C)C3=O)nc3ccccc32)no1 [I-149] | – | – | – | 5 | 5 | 5 | 5 | 4 | 5 | 5 | 5
CCOCn1c(=O)c(C(=O)C2=C(O)CCCC2=O)nc2ccccc21 [I-50] | – | – | – | 5 | 5 | 5 | 5 | 5 | 4 | 5 | 5
O=C1CCCC(O)=C1C(=O)c1nc2ccccc2n(-c2ccc(C3CC3)cc2)c1=O [II-33] | 5 | 5 | 5 | 4 | 5 | 5 | 5 | 5 | – | – | –
CCCCn1c(=O)c(C(=O)C2=C(O)CCCC2=O)nc2cccnc21 [III-15] | 5 | 5 | 5 | 5 | 5 | 5 | 5 | 5 | – | – | –
Cc1ccc(-n2c(=O)c(C(=O)C3=C(O)CCCC3=O)nc3ccccc32)cc1F [II-213] | 4 | 5 | 5 | 5 | 5 | 5 | 5 | 5 | – | – | –
O=C1CCCC(O)=C1C(=O)c1nc2ccccc2n(-c2nncs2)c1=O [I-269] | – | – | – | 5 | 5 | 5 | 5 | 5 | 5 | 5 | 5
O=C1CCCC(O)=C1C(=O)c1nc2cccnc2n(-c2ccccc2F)c1=O [IV-6] | 4 | 5 | 5 | 5 | 5 | 5 | 4 | 5 | – | – | –
COc1cc(-n2c(=O)c(C(=O)C3=C(O)CCCC3=O)nc3cc(F)ccc32)cc(OC)c1OC [II-238] | 5 | 5 | 5 | 5 | 5 | 5 | 5 | 5 | – | – | –
Cn1c(=O)c(C(=O)C2=C(O)CCCC2=O)nc2cccnc21 [III-2] | 5 | 5 | 5 | 5 | 5 | 5 | 5 | 5 | – | – | –
Cc1cccc2c1nc(C(=O)C1=C(O)CCCC1=O)c(=O)n2-c1ccccc1 [II-244] | 5 | 5 | 5 | 5 | 5 | 5 | 5 | 5 | – | – | –
O=C(C1=C(O)C2CCC(C2)C1=O)c1nc2ccccc2n(COCC(F)(F)F)c1=O (stereo not drawn) [I-62] | – | – | – | 5 | 5 | 5 | 5 | 5 | 5 | 5 | 5
